From PubChem BioAssay AID1259407 (Chemical Carcinogenesis Research Information System (CCRIS), 2018)
Calls of active or inactive are those of the source. How the calls were made is not given here.

System: CCRIS mutagenicity, Ames/micronucleus/aberration tests
Assay: CCRIS mutagenicity studies
Settings: Method: STANDARD PLATE
[1] = Test System: AMES SALMONELLA TYPHIMURIUM, Strain/Indicator: TA97, Metabolic Activation: NONE
[2] = Test System: AMES SALMONELLA TYPHIMURIUM, Strain/Indicator: TA98, Metabolic Activation: NONE
[3] = Test System: AMES SALMONELLA TYPHIMURIUM, Strain/Indicator: TA98, Metabolic Activation: RAT, LIVER, S-9, AROCLOR 1254
[4] = Test System: AMES SALMONELLA TYPHIMURIUM, Strain/Indicator: TA100, Metabolic Activation: NONE
[5] = Test System: AMES SALMONELLA TYPHIMURIUM, Strain/Indicator: TA100, Metabolic Activation: RAT, LIVER, S-9, AROCLOR 1254
[6] = Test System: AMES SALMONELLA TYPHIMURIUM, Strain/Indicator: TA1535, Metabolic Activation: NONE
[7] = Test System: AMES SALMONELLA TYPHIMURIUM, Strain/Indicator: TA1537, Metabolic Activation: NONE
[8] = Test System: AMES SALMONELLA TYPHIMURIUM, Strain/Indicator: TA1538, Metabolic Activation: NONE
[9] = Test System: AMES SALMONELLA TYPHIMURIUM, Strain/Indicator: TA98, Metabolic Activation: S-9
[10] = Test System: AMES SALMONELLA TYPHIMURIUM, Strain/Indicator: TA100, Metabolic Activation: S-9
[11] = Test System: AMES SALMONELLA TYPHIMURIUM, Strain/Indicator: TA1535, Metabolic Activation: S-9

Question: What does the source list for `CC1(C)C(C=C(Cl)Cl)C1C(=O)OC(C#N)c1cccc(Oc2ccccc2)c1` (stereo not given)?
Answer: mutagenic call (Test System: AMES SALMONELLA TYPHIMURIUM, Strain/Indicator: TA97, Metabolic Activation: BARLEY, HOMOGENATES): inactive; negative; mutagenic call [1]: inactive; negative; mutagenic call (Test System: AMES SALMONELLA TYPHIMURIUM, Strain/Indicator: TA97, Metabolic Activation: RAT, LIVER, S-9, DELOR 103): inactive; negative; mutagenic call (Test System: AMES SALMONELLA TYPHIMURIUM, Strain/Indicator: TA98, Metabolic Activation: BARLEY, HOMOGENATES): inactive; negative; mutagenic call [2]: inactive; negative; mutagenic call [3]: inactive; negative; mutagenic call (Test System: AMES SALMONELLA TYPHIMURIUM, Strain/Indicator: TA98, Metabolic Activation: RAT, LIVER, S-9, DELOR 103): inactive; negative; mutagenic call (Test System: AMES SALMONELLA TYPHIMURIUM, Strain/Indicator: TA100, Metabolic Activation: BARLEY, HOMOGENATES): inactive; negative; mutagenic call [4]: inactive; negative; mutagenic call [5]: inactive; negative; mutagenic call (Test System: AMES SALMONELLA TYPHIMURIUM, Strain/Indicator: TA100, Metabolic Activation: RAT, LIVER, S-9, DELOR 103): inactive; negative; mutagenic call (Test System: AMES SALMONELLA TYPHIMURIUM, Strain/Indicator: TA1535, Metabolic Activation: BARLEY, HOMOGENATES): inactive; negative; mutagenic call [6]: inactive; negative; mutagenic call (Test System: AMES SALMONELLA TYPHIMURIUM, Strain/Indicator: TA1535, Metabolic Activation: RAT, LIVER, S-9, AROCLOR 1254): inactive; negative; mutagenic call (Test System: AMES SALMONELLA TYPHIMURIUM, Strain/Indicator: TA1535, Metabolic Activation: RAT, LIVER, S-9, DELOR 103): inactive; negative; mutagenic call [7]: inactive; negative; mutagenic call (Test System: AMES SALMONELLA TYPHIMURIUM, Strain/Indicator: TA1537, Metabolic Activation: RAT, LIVER, S-9, AROCLOR 1254): inactive; negative; mutagenic call [8]: inactive; negative; mutagenic call (Test System: AMES SALMONELLA TYPHIMURIUM, Strain/Indicator: TA1538, Metabolic Activation: RAT, LIVER, S-9, DELOR 103): inactive; negative; mutagenic call (Test System: CHINESE HAMSTER V-79, Strain/Indicator: V-79/6-THIOGUANINE, Metabolic Activation: NONE): inactive; negative; mutagenic call (Test System: CHINESE HAMSTER V-79, Strain/Indicator: V-79/6-THIOGUANINE, Metabolic Activation: RAT HEPATOCYTES): inactive; negative; mutagenic call (Test System: CHINESE HAMSTER V-79, Strain/Indicator: V-79/OUABAIN, Metabolic Activation: NONE): inactive; negative; mutagenic call (Test System: CHINESE HAMSTER V-79, Strain/Indicator: V-79/OUABAIN, Metabolic Activation: RAT HEPATOCYTES): inactive; negative; mutagenic call (Test System: E. COLI, Strain/Indicator: WP2, Metabolic Activation: NONE): inactive; negative; mutagenic call (Test System: E. COLI, Strain/Indicator: WP2, Metabolic Activation: RAT, LIVER, S-9, AROCLOR 1254): inactive; negative

Question: With `COc1cc(N=Nc2ccc(N)cc2)c(C)cc1N=Nc1c(S(=O)(=O)O)cc2ccc(N)cc2c1O` as the molecule, how does the mutagenic call [2] read?
Answer: inactive; negative

Question: And the mutagenic call [3]?
Answer: active; positive

Question: What about the mutagenic call [4] of the same molecule?
Answer: inactive; negative

Question: And the mutagenic call [5]?
Answer: active; positive

Question: What about the mutagenic call [8] of the same molecule?
Answer: inactive; negative

Question: And the mutagenic call (Test System: AMES SALMONELLA TYPHIMURIUM, Strain/Indicator: TA1538, Metabolic Activation: RAT, LIVER, S-9, AROCLOR 1254)?
Answer: active; positive

Question: Which results are given for `CCC(C)Nc1snc2ccccc12` (stereo not given)?
Answer: mutagenic call [2]: inactive; negative; mutagenic call [9]: inactive; negative; mutagenic call [4]: inactive; negative; mutagenic call [10]: inactive; negative; mutagenic call [6]: inactive; negative; mutagenic call [11]: inactive; negative; mutagenic call [7]: inactive; negative; mutagenic call (Test System: AMES SALMONELLA TYPHIMURIUM, Strain/Indicator: TA1537, Metabolic Activation: S-9): inactive; negative

Question: What does the source list for `COP(=S)(OC)Oc1ccc(Sc2ccc(OP(=S)(OC)OC)cc2)cc1`?
Answer: mutagenic call [1]: inactive; negative; mutagenic call (Test System: AMES SALMONELLA TYPHIMURIUM, Strain/Indicator: TA97, Metabolic Activation: S-9): inactive; negative; mutagenic call [2]: inactive; negative; mutagenic call [9]: inactive; negative; mutagenic call (Test System: AMES SALMONELLA TYPHIMURIUM, Strain/Indicator: TA98NR, Metabolic Activation: NONE): active; positive; mutagenic call (Test System: AMES SALMONELLA TYPHIMURIUM, Strain/Indicator: TA98NR, Metabolic Activation: S-9): active; positive; mutagenic call [4]: inactive; negative; mutagenic call [10]: inactive; negative; mutagenic call (Test System: AMES SALMONELLA TYPHIMURIUM, Strain/Indicator: TA102, Metabolic Activation: NONE): inactive; negative; mutagenic call (Test System: AMES SALMONELLA TYPHIMURIUM, Strain/Indicator: TA102, Metabolic Activation: S-9): inactive; negative; mutagenic call [6]: active; positive; mutagenic call [11]: active; positive; mutagenic call (Test System: AMES SALMONELLA TYPHIMURIUM, Strain/Indicator: YG7104, Metabolic Activation: NONE): active; positive; mutagenic call (Test System: AMES SALMONELLA TYPHIMURIUM, Strain/Indicator: YG7104, Metabolic Activation: S-9): active; positive; mutagenic call (Test System: AMES SALMONELLA TYPHIMURIUM, Strain/Indicator: YG7108, Metabolic Activation: NONE): inactive; negative; mutagenic call (Test System: AMES SALMONELLA TYPHIMURIUM, Strain/Indicator: YG7108, Metabolic Activation: S-9): active; positive
